US12492232B2, “Methods for producing proteins” (South Australian Health and Medical Research Institute …, priority 2018, dated 2025)
“Also recorded” adds a separate entry of the source.

Key:
Type in all cases: cell-based
[1] = test system: CHO cells; assay: Growth of transfected CHO cells in medium with 10%, 1%, 0.5% or 0% FBS (cell counts over 7 days)
Protocol: CHO cells were seeded into 24-well plates at 5,000 cells/well. […] 24 h after transfection, cells were transferred to medium containing 10%, 1%, 0.5% or 0% FBS as indicated. Every 24 h for 7 days, cells were trypsinized (from different dishes on each occasion) and counted on a haemocytometer. Growth medium was changed every 2 days.
CHO cells were seeded into 24-well plates at 5,000 cells/well. […] 24 h after transfection, cells were transferred to media (Ham's F12 from Life Technologies, Cat. No. 11765054) containing 10%, 1%, 0.5% or 0% foetal bovine serum, as indicated. Cells were trypsinized and counted on a haemocytometer every 24 h for 7 days. Growth medium was changed every 2 days.

[2] = test system: mTORC1 and ER Stress activation markers; assay: Western blot for mTORC1 and ER stress activation markers in ExpiCHO cells stably expressing Rheb variants
[3] = test system: mTORC1 signalling; assay: mTORC1 signalling (Western blot, S6K1 and rpS6) in transfected CHO cells starved of serum and amino acids, with or without TSC1/2 co-transfection
Protocol: GTP. GST-Rheb bound to GDP or GTP was pulled down using glutathione beads and the nucleotides were then separated by thin-layer chromatography and visualized by phosphorimager. The positions of GDP and GTP are shown (FIG. 1A). […] FIGS. 1C-1D: CHO cells were co-transfected using Lipofectamine 3000 with vectors encoding wildtype (WT) Rheb or the indicated mutants and TSC1/2 as indicated. 36 h after transfection, cells were transferred to Ham's F12 media lacking FBS for 16 h. Cells were the transferred to Dulbecco's phosphate-buffered saline (D-PBS, which lacks amino acids) for 1 h before cell lysates were harvested for SDS-PAGE and Western Blotting analysis using the indicated antibodies.

[4] = test system: CHO cells stably expressing Firefly luciferase (FLuc); assay: Firefly luciferase assay in CHO cells stably expressing FLuc transfected with Rheb vectors; details: day 7, normalised to cell number
Protocol: CHO cells stably expressing Firefly luciferase (FLuc) or Gaussia luciferase (GLuc) as indicated were transfected using Lipofectamine3000 with an empty vector (EV) or vectors for Rheb WT, S21L, T23M, G29S, Y35N or E40K and also treated with the mTOR inhibitor AZD8055 at 100 nM for the total duration where indicated. Fluc and GLuc assays were performed 24 h after transfection and then every 48 h for 7 days. Assay results are normalised to cell number. GLuc-CHO cells were harvested for SDS-PAGE and Western Blot analysis at the 168 h (7-day) time-point to probe for intracellular GLuc, FLAG (Rheb) and actin, as ‘loading control’. […] In (E), secreted GLuc was monitored every 4 h from 24 h to 60 h showing the rate of secretion of GLuc was higher when Rheb-T23M is expressed as compared to Rheb-Y35N. The pattern for intracellular levels of Gaussia luciferase (assessed by immunoblot of cell lysates harvested at 7 days post transfection) more closely resemble those intracellular firefly luciferase (F) with little change compared to either the empty vector or WT while still retaining heightened mTORC1 signalling as indicated by the elevated levels of P-S6K1 Thr389 compared to cells transfected with the empty vector. […]

[5] = test system: ExpiCHO-S™ cells; assay: Rabbit IgG secretion by ExpiCHO-S cells stably expressing Rheb variants (Easy-Titer Rabbit IgG Assay); details: single replicate; compared to Rheb-WT or Rheb-Y35N
Protocol: Materials and Methods: ExpiCHO-S™ cells were purchased from ThermoFischer Scientific and cultured in ExpiCHO™ Expression Medium at 37° C. at 8% CO2. […] Transfected cells were grown in 600 μg/mL […] for 6 weeks. Surviving cells were plated as single cells in a 96-well plate and monoclonal colonies selected for FLAG-Rheb expression.
Rabbit IgG secretion was determined using the ExpiCHO™ Expression system according to the manufacturer's instructions. Briefly, ExpiCHO™ cells expressing either endogenous Rheb or stably expressing exogenous Rheb were seeded at 6×10^6 cells/mL in 25 mL of ExpiCHO™ Expression Medium and transfected with 20 μg of a pcDNA3.1 vector encoding heavy and light chains of Rabbit IgG at a 1:2 ratio of heavy chain:light chain using ExpiFectamine™ CHO Reagent. 24 hours after transfection, cells were feed with ExpiCHO™ Feed and ExpiFectamine™ CHO Enhancer and transferred to 32° C., 5% CO2. Cells were allowed to grow for 10 days with 100 μL samples taken every day. After 10 days, Cells were pelleted by centrifugation at 4000×g for 30 minutes at 4° C. and the supernatant filtered through a […] PVFD filter and collected. IgG yield was determined using Easy-Titer™ Rabbit IgG Assay kit and calculated from a standard curve.

Rheb-T23M: human Rheb protein with a methionine variant at residue 23 (T23M), SEQ ID NO. 3
cell growth in serum-free medium ([1]; 0% FBS): allows CHO cells to grow efficiently in serum-free medium
cell growth in 0.5% FBS ([1]; 0.5% FBS): significant growth advantage over the other Rheb mutants; also recorded: substantially greater proliferation
cell growth in medium with 10% and 1% FBS ([1]; 10% or 1% FBS): no effect on cell growth
ER stress response (Western blot markers) [2]: mild ER stress response
mTORC1 signalling (Western blot markers) [2]: increased mTORC1 signalling
mTORC1 signalling in the absence of upstream activation ([3]; no serum 16 h, D-PBS 1 h, compared to empty vector and Rheb-WT): increased mTORC1 signalling over both the empty vector and Rheb-WT
mTORC1 signalling when co-transfected with TSC1/TSC2 ([3]; no serum and amino acids, co-transfected with TSC1/TSC2): no reduction
increase in synthesis of intracellular Firefly luciferase compared to the empty vector [4]: ca. 1.2 fold
rate of IgG secretion determined daily over 10 days [5]: maintain a constant rate of IgG secretion over a longer period
